Assay results reported in patent publication US6835382B2, “Ii peptide therapeutics to enhance antigen presentation” (University of Massachusetts, priority 1996, dated 2004).
Non-standard residues stand in square brackets, D forms with d. hArg = N=C(N)NCCCC[C@H](N)C(=O)O; Cit = NC(=O)NCCC[C@H](N)C(=O)O; Orn = NCCC[C@H](N)C(=O)O

Test system: murine E^k MHC class II allele
Experiment: antigenic peptide prepulse assay, E^k allele (fixed APC prepulsed with PGCC81-104)
Assay type: cell-based
Procedure: In a second type of assay, the “peptide prepulse assay”, the antigenic peptide is incubated with paraformaldehyde-fixed APC for 6 h. The APC are washed and incubated for 24 h with the AE101 series homolog and the T cell hybridoma specific for the antigenic peptide. After that incubation, an aliquot of the culture supernatant is transferred to a second culture to measure the relative degree of T hybridoma stimulation, as reflected in the effect of released interleukins on the growth of an interleukin-dependent, indicator cell line, as described above.
The two above described assays measure different aspects of the molecular mechanism of the AE101 series of peptides. In the “simultaneous assay”, AE101 series peptides are thought to induce the release of endogenously bound peptides and to permit the binding of the second, specific antigenic peptide which is relatively abundant in the culture fluid. The AE101 series peptides enhance antigenic peptide-specific T cell responses in simultaneous assays. In the “peptide prepulse” assay, the specific antigenic peptide becomes bound to MHC class II molecules on the surface of the fixed APC during the 6 h prepulse incubation. The effect of the AE101 series homologs is then thought to release that antigenic peptide, resulting in an apparent suppression of the immune response.
The AE101 series peptides are thought to contact the MHC class II molecules at a discrete site outside the antigenic peptide-binding groove. AE101 peptide binding to this “Ii-KEY” site is thought to induce a conformational change in the MHC class II molecules accelerating the dissociation of previously bound antigenic peptide. […] The AE101 series peptides thus inhibit antigenic peptide-specific T cell responses in the “peptide prepulse” assays.
Antigenic peptide-specific T cell activation was measured by the following procedure. Mitomycin C-treated A20 cells (A^dE^d) or CH27 cells APC (A^kE^k) were generated by incubating 5×10^6 cells/mL for 20 min at 37° C. with 0.025 mg/mL of mitomycin C (Sigma) in Dulbecco's Modified Eaglel's Medium (DMEM)/10 mM N-2(hydroxyethylpiperazine-N″[2-ethanesulfonic acid] (HEPES), followed by two washes with four volumes of DMEM-5% fetal calf serum (FCS), 10 mM HEPES. Fixed APC were generated by treating 1×10^6 cells/mL for 5 min with 0.5% paraformaldehyde in PBS (pH 7.2), followed by two washes with four volumes of DMEM-10% FCS, 10 mM HEPES. T cell hybridomas were irradiated 2200 rads before each assay.
The “peptide prepulse assay” was carried out under essentially the same conditions as described for the “simultaneous assay” with the following modifications. Fixed APC were first incubated for 6 h at 1×10^6 cells/mL in complete DMEM-5% FCS in 24-well microculture plates (1 mL/well) with antigenic peptide, followed by four washes with 10 volumes of DMEM-5% FCS. The cells were then exposed to varying concentrations of AE101 series peptide (64 μM, 16 μM, 4 μM, and 1 μM) for 24 h in the presence of the T cell hybridoma specific to the antigenic peptide. Interleukin release from these cultures was measured by proliferation of HT-2 cells to interleukins in supernatants transferred from the primary culture. Generally, a single dose of 64 μM of each AE101 series peptide was used. The baseline T cell response was measured by culturing T hybridoma cells with the antigenic peptide-prepulsed APC in the absence of AE101 series peptides.
Table 19: Activities of C-terminal truncation analogs of AE101 in an antigenic peptide prepulse assay. […] Paraformaldehyde-treated APC (fixed APC) expressing MHC class II molecules were incubated with antigenic peptide for 6 h (HEL106-116 for E^d and PGCC81-104 for E^k). After this incubation, the prepulsed APC were washed and cultured with T hybridoma cells and AE101 series peptides. The antigenic peptide concentration during the prepulse was 12 μM for Ed and 20 μM for E^k. The AE101 series peptide concentrations were 64 μM for E^d and 16 μM for E^k. […]

[1] = Table 20, AE peptide 16 μM, prepulse 20 μM antigenic peptide, supernatant 1:2

Row | Substance | Activity in antigenic peptide prepulse assay, E^k (baseline = 1.00) [1] | other results
1 | Ac-YRMKLPKSAK-NH2 [AE109] | 0.28 | Activity in antigenic peptide prepulse assay, E^k (baseline without AE peptide = 1.00) (Table 19, AE peptide 16 μM, prepulse 20 μM PGCC81-104, supernatant 1:2): 0.07; Activity in antigenic peptide prepulse assay, E^k (baseline = 1.00) (Table 21, AE peptide 16 μM, prepulse 20 μM antigenic peptide, supernatant 1:2): 0.07
2 | Ac-Y[Cit]MKLPKSAK-NH2 [AE131] | 0.71 | Activity in antigenic peptide prepulse assay, E^k (baseline = 1.00) (Table 25, AE peptide 64 μM, prepulse 2.5 μM antigenic peptide, supernatant 1:10): 0.98
3 | Ac-Y[Orn]MKLPKSAK-NH2 [AE130] | 0.66 | –
4 | Ac-Y[hArg]MKLPKSAK-NH2 [AE132] | 0.1 | Activity in antigenic peptide prepulse assay, E^k (baseline = 1.0) (Table 26, AE peptide 64 μM, prepulse 1.25 μM antigenic peptide, supernatant 1:8): 0.89
5 | Ac-l RMKLPK-NH2 [AE160] | – | Activity in antigenic peptide prepulse assay, E^k (baseline = 1.00) (Table 22, AE peptide 16 μM, prepulse 20 μM antigenic peptide, supernatant 1:2): 0.47
6 | YRMKLPKSAKPVSQMR [AE101] | 0.89 | –
